# Measured values as given in patent US20150233925A1, “Assays and Cell-Based Tests Using a Receptor Na/K-ATPase/Src Complex and Uses Thereof” (The University of Toledo, priority 2012, published 2015).
# Entries after “also recorded” stand apart in the source; their conditions may differ.
# Tests used:
# [1] = tested on: ouabain-induced signal transduction in cultured cells; assay: Ouabain-induced signal transduction in cultured cells; type: cell-based
# Method: (§1) To assay for receptor antagonist, the reconstituted receptor was exposed to compounds in the presence and absence of an agonist (ouabain) and then assessed whether the compounds could antagonize ouabain-induced activation of Src. To verify that they are specific antagonists of receptor Na/K-ATPase/Src complex, their effects on ouabain-, EGF- and dopamine-induced signal transduction was measured in LLC-PK1 and PY-17 cells.
# [2] = biological target: T1, Na/K-ATPase/Src receptor complex (Sus scrofa, UniProt P05024); assay: FRET based high throughput screen for agonists and antagonists; type: biochemical, pig; details: screen with ouabain plus compounds, followed by cell-based analyses
# T1 construct: The α1 Na/K-ATPase was purified from pig kidney; tissue Upstate Biotechnology (Src only); host or cells: pig kidney (Na/K-ATPase)
# From the text: Referring now to FIGS. 2A and 2B, there are shown schematic illustrations of a FRET based high throughput assay for agonist and antagonist. […] A pathway-based approach is useful to screen for agonists of Na/K-ATPase/Src receptor targets. Agonist can interact with Na/K-ATPase resulting Src phosphorylation. This active Src transfers the γ-phosphate of ATP to a single tyrosine residue in the synthetic peptide substrate. Then, a site specific protease recognizes and cleaves non-phosphorylated peptides. […] Cleavage disrupts FRET on the peptide, whereas uncleaved, phosphorylated peptides maintain FRET.
# This assay is similar as the agonist screening. For example, in the presence of ouabain, antagonist can reduce ouabain induced peptide substrate phosphorylation.
# (§2) In one example, the FRET-based in vitro high throughput assay utilizes the in vitro reconstitution of receptor Na/K-ATPase and Src, and a peptide Src substrate-based FRET assay. […] To reconstitute the receptor α1 Na/K-ATPase/Src complex, purified pig kidney Na/K-ATPase was mixed with purified recombinant Src. This receptor complex has an inhibited Src activity. The binding of agonists to the receptor complex releases the inhibited Src and result in an increase in Src activity, which is measured by a peptide-based FRET analysis (FIG. 2A, FIG. 2B). To screen the agonist of receptor Na/K-ATPase/Src complex, the reconstituted receptor is exposed to compounds, and then measured for Src activation using the peptide-based FRET assay.
# The chemical library used for screening in the present study contained 100 structurally diverse, drug-like, naturally occurring organic compounds or their semisynthetic derivatives. Stock compounds were prepared at 10 mM in DMSO. The specific activities of Na/K-ATPase of various kidney preparations were in the range of 900-1,200 μmol/mg/h. The high throughput screen was conducted in a Corning 384-well low-volume assay plates at room temperature.
# The first step was Kinase Reaction with the final reaction volume of 10 μl. The purified Src (4.5 U) was incubated with 2 μg of the purified Na/K-ATPase in phosphate-buffered saline (PBS) for 5 min. Afterward, the Na/K-ATPase/Src complex was exposed to compounds to screen for agonist or ouabain 10 μM plus compounds to screen antagonists for 10 min. Then, the Src kinase substrate Tyr 2 peptide or phosphor-peptide (control) was added. The reaction was initiated by addition of 2 mM ATP/Mg^2+, continued for 60 min.
# The second step was Development Reaction. Each well was added 5 μl Development Solution, then mix the plate and incubate another 60 min. The assay was stopped by adding 5 μl stop reagent and then fluorescent signals were measured.
# ERK in LLC-PK1 cells = assay: Western blot of activated-ERK in LLC-PK1 cells; type: cell-based, pig; details: pretreated 30 min, ouabain 1 nM for 1 h
# Method: LLC-PK1 cells were serum-starved overnight, washed and pretreated with Ferulic acid (A) for 30 min. Both control and compounds-pretreated cells were exposed to ouabain (1 nM) for 1 h. Cell lysates were collected, separated by SDS-PAGE and probed for activated-ERK and total-ERK. A representative western blot is shown. The quantitative data from three to four separate experiments were presented. (***, p<0.001 vs control; #, p<0.05 vs Oua).
# The experiments were done as in FIG. 6D. The quantitative data from four separate experiments were presented. (***, p<0.001 vs control; ## #, p<0.001 vs Oua).
# (§3) Cells were washed with PBS and solubilized in modified ice-cold radioimmune precipitation assay buffer, and subjected to Western blot analysis. Protein signals were detected using an ECL kit and quantified using ImageJ.
# Src in LLC-PK1 cells = assay: Cell-based Src activation assay, LLC-PK1 cells; design: species or system pig; details: 20 μM OA
# Method: (§4) The second assay uses another pair of cell lines, LL-A416P-4 and LL-A420P-20. These cells were rat α1 A416P and A420P mutant-rescued PY-17 cells.
# The pig kidney epithelia cells (LLC-PK1 cells) were obtained from ATCC and maintained in Dulbecco's modified Eagle's medium (DMEM) in the presence of 10% FBS, 100 units/ml penicillin, and 100 μg/ml streptomycin in a 5% CO2 humidified incubator. To eliminate the confounding effect of growth factors in the serum, cells were serum starved over night before experiments.
# (§5) Referring now to FIG. 3A, cells were treated with indicated concentration of ouabain for 5 min, and total cell lysates were analyzed for pY418 and total Src. […] Values are mean±S.E. of at least three independent experiments. * p<0.05 compared with each control.
# as §3
# [3] = tested on: Src in LY-F286A-19 cells (F286A mutant Na/K-ATPase); assay: Cell-based Src activation assay, LY-F286A-19 cells; details: ouabain 10 min
# Method: (§6) The third assay uses other two cell lines (LY-I279A-3, LY-F286A-19), where the expressed I279A or F286A mutant Na/K-ATPase was defective in conformational transition (I279A and F286A mutants were defective in E1 to E2 and E2 to E1 conformational transition, respectively). […] Cell (LY-I279A-3 and LY-F286A-19) based Assay for agonist (ouabain): Cells were treated with indicated concentration of ouabain for 10 min, and total cell lysates were analyzed for pY418 and total Src. […] Values are mean±S.E. of at least three independent experiments. * p<0.05 compared with each control.
# as §3
# [4] = tested on: Src in AAC-19 cells (rat α1-rescued PY-17 cells); assay: Cell-based Src activation assay, control cell AAC-19
# Method: (§7) To confirm that these agonists activate Src through the Na/K-ATPase, three complementary cell-based assays were established. One assay uses a LLC-PK1 derived al knockdown PY-17 cell, a control cell P11 (LLC-PK1transfected with empty vector), and another control cell AAC-19 (rat al-rescued PY-17 cells).
# as §5, §3
# [5] = tested on: Src in P11 cells (LLC-PK1 transfected with empty vector); assay: Cell-based Src activation assay, control cell P11; design: species or system pig
# Method: as §7, §5, §3
# [6] = tested on: Src in PY-17 cells (LLC-PK1 derived α1 knockdown); assay: Cell-based Src activation assay, α1 knockdown PY-17 cells; design: species or system pig; details: Na/K-ATPase knockdown
# Method: as §7, §4, §5, §3
# [7] = tested on: Src in LL-A416P-4 cells (rat α1 A416P mutant-rescued PY-17 cells); assay: Cell-based Src activation assay, LL-A416P-4 cells; details: ouabain 10 min
# Method: as §4
# Cell (LL-A416P-4 and LL-A420P-20) based assay for agonist (ouabain): Cells were treated with indicated concentration of ouabain for 10 min, and total cell lysates were analyzed for pY418 and total Src. […] Values are mean±S.E. of at least three independent experiments. * p<0.05 compared with each control.
# as §3
# [8] = tested on: Src in LY-I279A-3 cells (I279A mutant Na/K-ATPase); assay: Cell-based Src activation assay, LY-I279A-3 cells; details: ouabain 10 min
# Method: as §6, §3
# [9] = biological target: T1, Na/K-ATPase/Src receptor complex; assay: Reconstituted Na/K-ATPase/Src receptor complex, Src pY418 by Western blot (kinase activity assay of Src); type: biochemical, pig; details: ouabain 1 μM, 100 μM vanade to inactivate ATPase activity
# Method: as §2
# Phosphorylation of Src pY 418, as an indicator of Src activation, was measured by Western blot. Ouabain was used at 1 μM and the assay was done in the presence of 100 μM vanade to inactivate ATPase activity. Values are mean±S.E. of at least three independent experiments. * p<0.05 compared with control. ** p<0.01 compared with control.
# as §1
# To determine whether the compound affect the Na/K-ATPase/Src receptor activity, the compounds was incubated with the purified Src (4.5 U) and 1 μg Na/K-ATPase for 15 min at 37° C. Afterward, 2 mM ATP/Mg^2+ was added. The reaction continued for 15 min at 37° C. and was stopped by addition of SDS sample buffer. Afterward, the Src pY418 was measured by anti-pY418 antibody to indicate Src activation.
# ERKs in LLC-PK1 cells = assay: Immunostaining assay for active ERK in LLC-PK1 cells; type: cell-based, pig; details: pretreated cells exposed to 1 nM ouabain for 60 min
# Method: as §1
# LLC-PK1 cells were pretreated with different concentrations of MB5 for 15 min, exposed to 1 nM ouabain for 60 min, and assayed for active ERKs. A representative set of images is shown. LLC-PK1 cells were pretreated with different concentrations of MB5 for 15 min, exposed to stimuli for either 10 or 3 min, and assayed for active ERKs. A representative set of images is shown.
# The data presented in FIGS. 6C-6E show blocking ouabain-induced ERK activation by other antagonists of receptor Na/K-ATPase/Src complex. […] Both control and Tanshinone I-pretreated cells were exposed to ouabain (1 nM) for 1 hour, and processed for immuno-staining of active ERK as in FIG. 6A. A representative set of images are presented from three separate experiments.
# LLC-PK1 cells grown on coverslip were serum-starved and treated with MB5 or stimuli for indicated time. […] The signals were detected by a Leica (Wetzlar, Germany) confocal microscope. […]
smiles,measurement,setting,value
"O=c1c2ccc(O)c(O)c2oc2c(O)c(O)ccc12 [MB7, 3,4,5,6-tetrahydroxyxanthone]",effect on ouabain-induced signal transduction,[1],antagonize
CC(C)(O)[C@@H]1CC[C@](C)([C@H]2[C@@H](O)C[C@@]3(C)[C@@H]4C[C@H](O[C@@H]5O[C@H](CO)[C@@H](O)[C@H](O)[C@H]5O)[C@H]5C(C)(C)[C@@H](O[C@@H]6OC[C@@H](O)[C@H](O)[C@H]6O)CC[C@@]56C[C@@]46CC[C@]23C)O1 [astragaloside IV],identification as antagonist of receptor Na/K-ATPase/Src complex (ouabain antagonist),[2],identified; also recorded: receptor antagonists
same,effect on ouabain-induced ERK activation,ERK in LLC-PK1 cells,inhibitory effects
COc1cc(/C=C/C(=O)CC(=O)/C=C/c2ccc(O)c(OC)c2)ccc1O [curcumin],identification as antagonist of receptor Na/K-ATPase/Src complex (ouabain antagonist),[2],receptor antagonists
O=C(O)[C@H](O)Cc1ccc(O)c(O)c1 [danshensu],identification as antagonist of receptor Na/K-ATPase/Src complex (ouabain antagonist),[2],identified
same,identification as antagonist of receptor Na/K-ATPase/Src complex (ouabain antagonist),[2]; listed as Tanshensu,receptor antagonists
COc1cc(/C=C/C(=O)O)ccc1O [ferulic acid],identification as antagonist of receptor Na/K-ATPase/Src complex (ouabain antagonist),[2],identified; also recorded: receptor antagonists
same,effect on ouabain-induced ERK activation,ERK in LLC-PK1 cells,inhibitory effects
CCCCCCCC/C=C\CCCCCCCC(=O)O [oleic acid],Src activation (pY418 / total Src),Src in LLC-PK1 cells,activated Src
C[C@@H]1O[C@@H](O[C@H]2C[C@@H](O)[C@]3(CO)[C@H]4[C@H](O)C[C@]5(C)[C@@H](C6=CC(=O)OC6)CC[C@]5(O)[C@@H]4CC[C@]3(O)C2)[C@H](O)[C@H](O)[C@H]1O [ouabain],Src activation (pY418 / total Src),[3],could no longer activate Src
same,Src activation (pY418 / total Src),[4],activate Src
same,Src activation (pY418 / total Src),[5],activate Src
same,Src activation (pY418 / total Src),[6],abolished their effects
same,Src activation (pY418 / total Src),[7],activated Src
same,Src activation (pY418 / total Src),[8],could no longer activate Src
Cc1coc2c1C(=O)C(=O)c1c-2ccc2c1CCCC2(C)C [tanshinone IIA],effect on ouabain-induced Src activation (Src pY418),[9],antagonizing effects
same,identification as antagonist of receptor Na/K-ATPase/Src complex (ouabain antagonist),[2],identified
Cc1coc2c1C(=O)C(=O)c1c-2ccc2c(C)cccc12 [tanshinone I],effect on ouabain-induced Src activation (Src pY418),[9],antagonizing effects
same,identification as antagonist of receptor Na/K-ATPase/Src complex (ouabain antagonist),[2],identified
same,effect on ouabain-induced activation of ERKs,ERKs in LLC-PK1 cells,inhibition
same,effect on ouabain-induced ERK activation,ERK in LLC-PK1 cells,inhibitory effects
